# How the values were obtained:
# [1] = test system: A375 resistant melanoma cells; assay: In vivo murine cancer model, A375 resistant xenograft; design: species or system BALB/c nu/nu (nude) mice; conditions: 0.7 mg/mouse/day intraperitoneal
# Method: Animal experiments were carried out in accordance with the Declaration of Helsinki and were approved by a local ethical committee CIEPAL (Comité Institutionnel d'Ethique Pour l'Animal de Laboratoire-Azur). Female immune-deficient BALB/c nu/nu (nude) mice were obtained at 5 weeks of age from Envigo Laboratory (Gannat, France). Nude mice were inoculated subcutaneously with A375 sensitive or resistant melanoma cells (1.0×10^6 cells/mouse). After tumor apparition (±5 days), animals received intraperitoneal injection of Labrafil (Control), PLX4032 (0.7 mg/mouse/day) or CRO15 (0.7 mg/mouse/day) dissolved in Labrafil. The growth tumor curves were determined by measuring the tumor volume using the equation V=(L*W2)/2 (V=tumor volume, W=tumor width, L=tumor length). At the end of the experiment, mice were euthanized by cervical dislocation and tumors were taken for western blot and immunofluorescence experiments (LC3, Cleaved Caspase 3). TUNEL assay was performed using the In Situ Cell Death Detection Kit (Roche, Meylan, France). The results are shown in FIGS. 3A and 3B (A375 sensitive melanoma cells), and 4B and 4C (A375 resistant melanoma cells).
# In Vivo Murine Cancer Model Animal experiments were carried out in accordance with the Declaration of Helsinki and were approved by a local ethical committee CIEPAL (Comite Institutionnel d'Ethique Pour l'Animal de Laboratoire-Azur). Female immune-deficient BALB/c nu/nu (nude) mice were obtained at 5 weeks of age from Envigo Laboratory (Gannat, France). Nude mice were inoculated subcutaneously with A375 resistant melanoma cells (1.0×10^6 cells/mouse). After tumor apparition (+5 days), animals received intraperitoneal injection of Labrafil (Control), PLX4032 (0.7 mg/mouse/day) or MTF319 (0.7 mg/mouse/day) dissolved in Labrafil. The growth tumor curves were determined by measuring the tumor volume using the equation V=(L*W2)/2 (V=tumor volume, W=tumor width, L=tumor length). At the end of the experiment, mice were euthanized by cervical dislocation.
# [2] = test system: patient melanoma cells; assay: Viability test with CRO15, patient melanoma cells; format: cell-based, human; conditions: 5 μM, 48 hours; FIG. 1D
# Method: Fresh sterile tissues were obtained from surgical waste from patients diagnosed with metastatic melanoma at the Nice CHU hospital. Epidermal cell suspensions were obtained from foreskins of Caucasian children by overnight digestion in phosphate-buffered saline containing 0.5% dispase grade II at 4° C., followed by a 20 min digestion with 0.05% trypsin-0.02% EDTA in phosphate-buffered saline (V/V) at 37° C. Human primary melanocytes were grown in MCDB153 medium supplemented with 2% FCS, 0.4 μg/ml hydrocortisone, 5 μg/ml insulin, 16 nM phorbol-12 myristate 13-acetate, 1 ng/ml basic fibroblast growth factor, 10 μg/ml bovine pituitary extract and penicillin/streptomycin (100 U/ml/50 μg/ml). […]
# For trypan blue staining, […] of cells (melanoma and normal human cells) were aseptically transferred to a 1.5 mL clear Eppendorf tube and incubated for 3 min at room temperature with an equal volume of 0.4% trypan blue solution. Viable cells were counted and the results are expressed as the percentage of the value of control cells. […]
# Different melanoma cell lines with various mutations, patient cells with various mutations and normal human cells, were treated with 5 μM of CRO15 for 48 hours or DMSO (Control). At the end of stimulation, viable cells were counted using the trypan blue dye exclusion method. […]
# [3] = test system: A375 resistant melanoma cells; assay: Viability test of CRO15 on resistant melanoma cells; format: cell-based, human; conditions: 48 hr, FIG. 4A
# Method: Resistant melanoma cell lines A375 and SKMel28 were a gift from Professor P. Marchetti and described in Corazao-Rozas et al. (2013). Cells were grown in RPMI 1640 or in DMEM supplemented with 10% of Foetal Calf Serum (FCS) and penicillin/streptomycin (100 U/ml/[…]) at 37° C. and 5% CO2.
# For trypan blue staining, […] of cells (melanoma and normal human cells) were aseptically transferred to a 1.5 mL clear Eppendorf tube and incubated for 3 min at room temperature with an equal volume of 0.4% trypan blue solution. Viable cells were counted and the results are expressed as the percentage of the value of control cells. All the experiments are performed 3 times in triplicate.
# A375 sensitive and resistant melanoma cells were treated with 5 μM of CRO15 for 48 hr or with 5 μM of PLX4032 for 48 hr or with DMSO (Control). At 48 hours, viable cells were counted using the trypan blue dye exclusion method. The results are normalized as percentages compare to the control and data means±SEM of three independent experiments performed in triplicate *p<0.05; **p<0.01; ***p<0.001.
smiles,measurement,setting,value
"Nc1nc(Nc2ccccc2SSc2ccccc2Nc2nc(N)nc(C(Cl)(Cl)Cl)n2)nc(C(Cl)(Cl)Cl)n1 [CRO15, N2,N2′-(disulfanediylbis(2,1-phenylene))bis(6-(trichloromethyl)-1,3,5-triazine-2,4-diamine)]",tumor volume,"[1]; FIG. 4B, 6A",reduces
same,tumor weight,"[1]; FIG. 4C, 6B",reduces
same,viability of patient melanoma cells,[2],induces a decrease of the viability
same,decrease of the viability compared with PLX4032,"[3]; 5 μM each, A375 sensitive and resistant",more important with CRO15 than with PLX4032
same,"cell viability, A375 resistant melanoma cells",[3]; 5 μM,induces a decrease of the cell viability

# — patent US11440906B2, “Biguanide derivatives and their rearrangement products for use in the treatment of cancer” (CENTRE NATIONAL DE LA RECHERCHE SCIENTIFIQUE, priority 2017, dated 2022)
